Test [1] has as its system Wnt activity (SW480 colon carcinoma cells stably expressing the Sp5-Luc reporter gene). Put plainly: Wnt activity screening assay (Sp5-Luc reporter gene assay). It counts as cell-based, human. The following applies: Homo sapiens; for EC50: 36 to 48 hours; for inhibition at 10 µM: read-out: percent inhibition at 10 μM (given for EC50 >10 μM), 10 μM. In outline: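 SW480 colon carcinoma cells stably carrying a lentiviral luciferase reporter driven by an Sp5 promoter with eight TCF/LEF sites, plated at 4,000 cells/well in DMEM with 1% FBS. Compound exposure for 36–48 h at 37 °C, then luminescence read. Signals normalized to DMSO; EC50 from four-parameter nonlinear fit.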
A general note: A reporter such as luciferase makes a cellular process visible.

The target in test [2] is recombinant GSK3β kinase (Homo sapiens (Human), UniProt P49841). Put plainly: GSK3β kinase assay (Ser/Thr 09 peptide Z-lyte, FRET).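 Further: FRET read-out as coumarin over fluorescein emission ratio, compounds incubated one hour at room temperature, IC50 from dose-response curve fit.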 Format: biochemical. Particulars: GSK3β kinase; head says EC50, method says IC50; ATP 46 μM.
Sequence of recombinant GSK3β kinase (P49841 whole entry): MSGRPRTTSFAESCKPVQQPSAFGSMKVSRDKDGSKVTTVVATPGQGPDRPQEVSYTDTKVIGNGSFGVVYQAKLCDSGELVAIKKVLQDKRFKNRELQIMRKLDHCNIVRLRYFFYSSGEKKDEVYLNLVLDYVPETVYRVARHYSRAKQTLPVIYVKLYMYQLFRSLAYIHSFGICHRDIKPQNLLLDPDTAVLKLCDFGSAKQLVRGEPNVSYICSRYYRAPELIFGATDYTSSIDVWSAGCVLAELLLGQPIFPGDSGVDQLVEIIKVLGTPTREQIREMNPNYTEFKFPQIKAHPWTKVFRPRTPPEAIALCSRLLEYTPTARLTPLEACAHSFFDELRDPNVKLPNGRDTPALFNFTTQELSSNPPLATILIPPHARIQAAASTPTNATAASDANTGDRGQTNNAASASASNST
Test [3] deals with SW480 colon carcinoma cells. Description: Cell viability assay (CellTiter-Glo). It counts as cell-based, human. Particulars: Homo sapiens; for EC50: 96 h, four days, CellTiter-Glo. In general terms: In ATP-based viability assays light output follows the ATP content of the culture.
Test [4] deals with LL29 cells (primary human fibroblasts derived from IPF patients), α-smooth muscle actin. Put plainly: Inhibition of fibrotic process: TGF-β1-treated primary human fibroblasts, αSMA staining.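 On all read-outs here: controls were TGF-β1-stimulated wells with DMSO vehicle as the positive reference and cells given DMSO alone as the negative reference.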 Particulars: Homo sapiens, Fibroblast; for EC50: 96 h, TGF-β1 20 ng/mL, 4 days, % cells positive for αSMA. Format: cell-based.
Experimental: Representative compounds were screened using primary human fibroblasts (derived from IPF patients) treated with TGF-β1 to determine their ability to inhibit the fibrotic process.
Human Fibroblast Cell Culture:
Each compound was dissolved in DMSO as a 10 mM stock and used to prepare compound source plates. […] LL29 cells were plated at 1,500 cells/well in 70 μL/well F12 medium supplemented with 1% Fetal Bovine Serum. […] Wells treated with TGF-β1 and containing DMSO were used as positive control, and cells with only DMSO were negative control. Cells were incubated at 37° C. and 5% CO2 for 4 days. Following incubation for 4 days, SYTOX green nucleic acid stain (Life Technologies [Thermo Fisher Scientific]) was added to the wells at a final concentration of 1 μM and incubated at room temperature for 30 min. Cells were then fixed using 4% formaldehyde (Electron Microscopy Sciences), washed 3 times with PBS followed by blocking and permeabilization using 3% Bovine Serum Albumin (BSA; Sigma) and 0.3% Triton X-100 (Sigma) in PBS.
The subject of test [5] is secreted cytokines TNFα, IL-6 and KC-GRO in BV-2 cells (mouse microglial cells). Description: Secreted cytokines in lipopolysaccharide-stimulated mouse glial cell line. Format: cell-based. The following applies: LPS 250 ng/mL 5 hours, table does not say which cytokine. The protocol: Representative compounds were screened using the cell-based assay procedure for secreted cytokines in a Lipopolysaccharide-stimulated mouse glial cell line described below.
BV-2 cells (mouse microglial cells) were cultured in 1:1 DMEM medium supplemented with 10% FBS, and 1% penicillin/streptomycin.
BV-2 cells are plated at 35,000 cells/well in a volume of 100 μl for at least 4 hours before compounds are added. DMSO-resuspended compounds were first dispensed in a 96-well plate and serial diluted from 10 μM to 4.6 nM final concentration in medium. Compounds were added to cells overnight. 250 ng/mL of lipopolysaccharide (Escherichia coli O111:B4, SIGMA) was added for 5 hours. Supernatant is removed and saved for further cytokine detection. The original plates with seeded cells were tested for cytotoxicity by measure of adenosine triphosphate (ATP) release by adding CellTiter-Glo® diluted 1:4 in distilled water (G7573, Promega) and transferring lysed cells to a completely black 96-well plate to be read with the Cytation3. Supernatant was then diluted 1:2 with a diluent from V-PLEX cytokine Kit and directly tested for the secreted cytokines TNFα, IL-6 and KC-GRO using electrochemiluminescence (Meso Scale Discovery). The standard curve for each cytokine was used to convert the electrochemiluminescent signal into pg of protein per mL. The signal was used to plot, draw the curve fitting, and determine each compounds EC50 in Prism (GraphPad).

Test [6] deals with IL-6 in human peripheral blood mononuclear cells (huPBMCs). Description: IL-6 inhibition in LPS-stimulated human peripheral blood mononuclear cells (HTRF). The following applies: Homo sapiens, PBMC; for EC50: LPS 50 ng/mL, 22 hours, IL-6 HTRF; for inhibition at 10 µM: read-out: percent inhibition at 10 μM (given for EC50 >10 μM), LPS, IL-6, 10 μM. Format: cell-based. The essentials: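 Fresh normal human PBMCs at 1×10e6 cells/mL in RPMI with 1% FBS received compound, then 50 ng/mL E. coli 0111:B4 LPS 2 h later, and were incubated a further 22 h at 37° C. IL-6 read by HTRF (665/620 nm ratio), normalized to DMSO; EC50 from 4-parameter fit.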
(In general: In TR-FRET formats the signal depends on donor and acceptor labels being close together.)

Test [7] addresses recombinant DYRK1A kinase (Homo sapiens (Human), UniProt Q13627). Put plainly: DYRK1A kinase assay (Ser/Thr 18 peptide Z-lyte, FRET). Particulars: DYRK1A kinase; head says EC50, method says IC50; ATP 30 μM.
Test [8] relates to pT212Tau in Dyrk1a- and MAPT-overexpressing HEK293T cells. Put plainly: Tau phosphorylation at Threonine 212 (pT212Tau) sandwich ELISA in double transfected cells. The following applies: Homo sapiens, HEK-293T, read-out: Thr212 EC50 (μM).
Experimental: HEK293T cells (transfectable human embryonic kidney cells) were cultured in DMEM medium supplemented with 10% FBS and 1% penicillin/streptomycin.
HEK293T cells were transiently transfected to overexpress Dyrk1a and microtubule-associated protein Tau (MAPT) genes. Specifically, Dyrk1a and MAPT expression vectors were obtained from OriGene (10 μg of each, catalog numbers SC314641 and RC216166, respectively). […] HEK293T cells were seeded at 1.0×10^7 cells in 10 mL per T-75 flask. […] One T-75 flask was designated as a no-vector negative control for pT212Tau signal.
After 4-6 hours of incubation in transfection reagents, transiently double transfected HEK293T cells were dissociated by treatment with trypsin EDTA and seeded at 1.0×10^5 cells in 100 μL per well in 96-well plates. No-vector negative controls were seeded in separate 96-well plates to avoid the risk of the negative control cells picking up the overexpression during incubation.
96-well flat-bottom plates were coated with 100 μL per well anti-HT7 capture antibody (ThermoFisher, MN1000) diluted 1:300 in 1×PBS at 4° C. overnight, with shaking at 500 rpm.
Cells were then lysed with 100 μL 1×RIPA buffer supplemented with phosphatase and protease inhibitors (each diluted to a final 1×). […] V-bottom plates were centrifuged at 4000 rpm, 4° C., for 15 minutes, and 100 μL of lysate supernatant from each well was directly tested for pT212Tau signal by sandwich ELISA.

Molecules are shown by their SMILES.

As a reminder, the EC50 is the concentration at which the effect is half-maximal. Broadly, the inhibition is the relative decrease from the control value, in per cent.

In the case of `O=C(Nc1cc2cc(-c3cncc(C(F)F)c3)ccc2cn1)c1cccc(C2CCNCC2)c1` [Compound 26, N-(6-(5-(Difluoromethyl)pyridin-3-yl)isoquinolin-3-yl)-3-(piperidin-4-yl)benzamide], the EC50 in test [1] was 1550 nM; in test [2] it was more than 10000 nM; in test [3], 1860 nM; in test [4], 1330 nM; in test [5], 479 nM; in test [6], 1320 nM. Moreover, the values for the EC50 in test [7] and in test [8] were 29 nM and 1.4 µM, respectively.
Consider `CN1CCCC(C(=O)Nc2cc3cc(-c4cnccn4)ccc3cn2)CC1` (stereo not drawn) [Compound 80, 1-Methyl-N-(6-(pyrazin-2-yl)isoquinolin-3-yl)azepane-4-carboxamide], for which the EC50 is more than 10000 nM in test [1]; 1560 nM in test [2]; more than 10000 nM in test [3]; 9130 nM in test [4]; more than 10000 nM in test [6]; 27 nM in test [7]. The EC50 in test [8] was 1.4 µM. The inhibition at 10 µM in test [1] was 9.6%; in test [3] (read-out: percent inhibition at 10 μM (given for EC50 >10 μM), 10 μM), 32%; in test [6] it was 4.9%.
For the compound `Cc1c[nH]c2ncc(-c3ccc4cnc(NC(=O)c5ccnc(N6CCN(C)CC6)c5)cc4c3)cc12` [Compound 134, N-(6-(3-Methyl-1H-pyrrolo[2,3-b]pyridin-5-yl)isoquinolin-3-yl)-2-(4-methylpiperazin-1-yl)isonicotinamide], the EC50 in test [1] is 6210 nM; in test [2] it was more than 10000 nM; in test [3] it was 3930 nM; in test [4] it was 2750 nM; in test [6], 8810 nM; in test [7], 54 nM.
As to `O=C(Nc1cc2cc(-c3cccnc3)ccc2cn1)c1coc(C2CCNCC2)n1` [Compound 140, 2-(Piperidin-4-yl)-N-(6-(pyridin-3-yl)isoquinolin-3-yl)oxazole-4-carboxamide], the EC50 is more than 10000 nM in test [1]; more than 10000 nM in test [2]; 724 nM in test [3]; 1680 nM in test [4]; 3400 nM in test [6]; 1050 nM in test [7]. The inhibition at 10 µM in test [1] stood at 6.6%.
For `CN1CCN(c2cc(C(=O)Nc3cc4cc(-c5cnc6[nH]ccc6n5)ccc4cn3)ccn2)CC1` [Compound 136, N-(6-(5H-Pyrrolo[2,3-b]pyrazin-2-yl)isoquinolin-3-yl)-2-(4-methylpiperazin-1-yl)isonicotinamide], the EC50 in test [1] is 1730 nM; in test [2] it was more than 10000 nM; in test [3] it was 1240 nM; in test [4] it was 933 nM; in test [6], 9060 nM; in test [7], 38 nM.
Consider `CN1CCN(c2cc(C(=O)Nc3cc4cc(-c5cncc(NC(C)(C)C)n5)ccc4cn3)ccn2)CC1` [Compound 100, N-(6-(6-(tert-Butylamino)pyrazin-2-yl)isoquinolin-3-yl)-2-(4-methylpiperazin-1-yl)isonicotinamide], for which the EC50 is 51 nM in test [1]; 5170 nM in test [2]; 111 nM in test [3]; 45 nM in test [4]; 223 nM in test [6]; 4 nM in test [7].
Consider `O=C(Nc1cc2cc(-c3cncc(N[C@H]4CCNC[C@@H]4F)n3)ccc2cn1)c1ccc(F)cc1` [Compound 112, 4-Fluoro-N-(6-(6-(((3S,4S)-3-fluoropiperidin-4-yl)amino)pyrazin-2-yl)isoquinolin-3-yl)benzamide], for which the EC50 in test [1] came to 9 nM; in test [2], 1830 nM; in test [3] it was 7 nM; in test [4], 975 nM; in test [6], 1060 nM; in test [7], 8 nM.
As for `O=C(Nc1cc2cc(-c3cncc(NC4CCNCC4)n3)ccc2cn1)c1ccc(F)cc1` [Compound 110, 4-fluoro-N-(6-(6-(piperidin-4-ylamino)pyrazin-2-yl)isoquinolin-3-yl)benzamide], the EC50 worked out at 116 nM in test [1]; 4320 nM in test [2]; 326 nM in test [3]; 345 nM in test [4]; 1180 nM in test [6]; 2 nM in test [7].
As for `CN1CCC(Nc2cncc(-c3ccc4cnc(NC(=O)C5CCCC5)cc4c3)n2)CC1` [Compound 114, N-(6-(6-((1-Methylpiperidin-4-yl)amino)pyrazin-2-yl)isoquinolin-3-yl) cyclopentanecarboxamide], the concentration giving a half-maximal response (EC50) is 438 nM in test [1]; 48 nM in test [2]; 474 nM in test [3]; 175 nM in test [4]; 334 nM in test [6]; 1 nM in test [7].
As for `O=C(Nc1cc2cc(-c3cncc(OC4CNC4)n3)ccc2cn1)c1ccc(F)cc1` [Compound 125, N-(6-(6-(Azetidin-3-yloxy)pyrazin-2-yl)isoquinolin-3-yl)-4-fluorobenzamide], the EC50 was 7270 nM in test [1]; more than 10000 nM in test [2]; 7640 nM in test [3]; more than 10000 nM in test [4]; more than 10000 nM in test [6]; 5 nM in test [7]. The inhibition at 10 µM in test [4] (read-out: percent inhibition at 10 μM (given for EC50 >10 μM), TGF-β1, αSMA, 10 μM) was 43.6%; in test [6], 4.5%.
As for `CC(C)Nc1cncc(-c2ccc3cnc(NC(=O)c4cccc(C5CCN(C)CC5)c4)cc3c2)n1` [Compound 93, N-(6-(6-(Isopropylamino)pyrazin-2-yl)isoquinolin-3-yl)-3-(1-methylpiperidin-4-yl)benzamide], the EC50 in test [1] amounted to 132 nM; in test [2], 6550 nM; in test [3] it was 171 nM; in test [4], 2240 nM; in test [6], 811 nM; in test [7], 1 nM.
As for `CC(C)Nc1cncc(-c2ccc3cnc(NC(=O)c4ccnc(N5CCN(C)CC5)c4)cc3c2)c1` [Compound 43, N-(6-(5-(Isopropylamino)pyridin-3-yl)isoquinolin-3-yl)-2-(4-methylpiperazin-1-yl)isonicotinamide], the EC50 in test [1] was 275 nM; in test [2], more than 10000 nM; in test [3] it was 467 nM; in test [4], 217 nM; in test [6], 2060 nM; in test [7], 2 nM.
As to `CN(C)C1CN(c2cc(C(=O)Nc3cc4cc(-c5cncc(NC(C)(C)C)n5)ccc4cn3)ccn2)C1` [Compound 98, N-(6-(6-(tert-Butylamino)pyrazin-2-yl)isoquinolin-3-yl)-2-(3-(dimethylamino)azetidin-1-yl)isonicotinamide], the EC50 in test [1] came to 24 nM; in test [2], 4800 nM; in test [3], 31 nM; in test [4], 32 nM; in test [6], 87 nM; in test [7], 2 nM.
Consider `O=C(Nc1cc2cc(-c3cncc(NCC4(F)CNC4)n3)ccc2cn1)C1CC1` [Compound 103, N-(6-(6-(((3-Fluoroazetidin-3-yl)methyl)amino)pyrazin-2-yl)isoquinolin-3-yl)cyclopropanecarboxamide], for which the EC50 worked out at 119 nM in test [1]; 3 nM in test [2]; 253 nM in test [3]; 547 nM in test [4]; 146 nM in test [6]; 1 nM in test [7].
